Assay results: US5883074A, “Potentiators of antibacterial agents” (priority 1995, dated 1999)

Assays:
MRSA [1] = assay: Potentiation screening assay: methicillin MIC reduction in MRSA; format: cell-based, Staphylococcus aureus; conditions: 0, 5, and 10 μg/ml test compound
Description: After regrowth at 35° C. to an OD600 of 0.2-0.4 (1-2 hrs.), the cells are diluted 1/1000 in MHB. […] The plate is placed in a humidified 35° C. incubator for 5-24 hours, and cell growth or inhibition is read as turbidity (OD600). Two positive and one negative controls for growth are cells grown MHB, cells grown in MHB plus 20 μg/ml methicillin alone (without test compound), and uninoculated MHB respectively.
Compounds which meet the first two criteria for follow-up are evaluated in a standard microdilution assessment of the MIC with methicillin for MRSA. (see Lorian, Antibiotics in Laboratory Medicine, 3rd ed., pp. 72-75 (1991).) In order to be carried further, the MIC of methicillin preferably is reduced in the presence of the potentiator to at most twice the MIC of a susceptible strain for methicillin.
MICs for the compounds were determined in the presence of 0, 5, and 10 μg/ml of each compound. MRSA cells were grown in the presence of 0, 5, and 10 μg/ml test compound and concentrations of methicillin obtained from serial two-fold dilutions starting at 1024 μg/ml to 0.002 μg/ml (This range can be extended or refined as appropriate.) as follows: A fresh inoculum of MRSA cells was grown at 35° C. in Mueller-Hinton Broth (MHB) overnight and then diluted 1/50 in the same medium. After regrowth at 35° C. to an OD600 of 0.2-0.4 (1-2 hrs.), the cells were diluted 1/1000 in MHB. […] The plate was placed in a humidified 35° C. incubator for 24 hours, and cell growth or inhibition was read as turbidity (OD600).

MRSA [2] = assay: Specificity: intrinsic antibacterial activity without antibacterial agent; format: cell-based, Staphylococcus aureus; conditions: test compound alone, without methicillin
Description: In order to ascertain that the test compound is not primarily responsible for inhibition of growth, MRSA cells are grown in the presence of 5 μg/ml test compound as follows: A fresh inoculum of MRSA cells is grown at 35° C. in Mueller-Hinton Broth (MHB) overnight and then diluted 1/50 in the same medium. After regrowth at 35° C. to an OD600 of 0.2-0.4 (1-2 hrs.), the cells are diluted 1/1000 in MHB. In a microtiter plate, 50 μl of this diluted culture is combined with 50 μl MHB containing 10 μg/ml test compound to give starting growth conditions of 5×10^5 cfu/ml in MHB, with 5 μg/ml test compound. The plate is placed in a humidified 35° C. incubator for 5-24 hours, and cell growth or inhibition is read as turbidity (OD600). To be carried forward to the next step of the potentiator screening assay, the test compound should have little or no intrinsic anti-staphylococcal activity (growth should be at least 75% of the growth of the positive control without methicillin, corrected for background), or that activity should be explicable without indicating the probability of human toxicity.

[3] = test system: Enterococcus faecalis VanA; assay: Checkerboard assay / dose range study with vancomycin; format: cell-based
Source text: (§1) FIG. 9a provides the results of checkerboard assays showing the MIC reduction for vancomycin in the presence of a range of concentrations of brazilin against two Enterococcus faecalis strains, one VanA and the other VanB. […] Similarly, FIG. 9b provides the results of checkerboard assays showing the MIC reduction for vancomycin in the presence of a range of concentrations of 6-ethyl-7-[1-oxo-3-(1-pyrrolidino)]propyl-1,2,3,4-tetrahydro-1,1,4,4-tetramethylnaphthalene (EOPPTTN).
(§2) Two of the three compounds (brazilin and 6-ethyl-7-[oxo-3-(1-pyrrolidino)]propyl-1,2,3,4-tetrahydro-1,1,4,4-tetramethylnaphthalene) have been examined for synergy with vancomycin. […] Two examples of reasons for alterations are for further optimization, and for modification for use with other bacterial strains or species.

[4] = test system: Enterococcus faecalis VanB; assay: as above; format: cell-based
Source text: as §1, §2

E. faecalis VanA strain = assay: Vancomycin potentiation screens VPS-20 and VPS-D-ala; format: cell-based, Enterococcus faecalis; conditions: 10 ug/ml test compound
Description: In the VPS-20 protocol, vancomycin is used at 20 ug/ml, test compounds are used at 10 ug/ml (this is not critical, a range could be used as well). The growth medium is Brain Heart Infusion broth however, any of a variety of media which will support growth of the specific bacterial strain can be used. The VPS-D-Ala screen uses 8 ug/ml of vancomycin and 50 mM D-alanine. This amino acid is added to feed the bacteria excess alanine, which allows the bacteria to incorporate the alanine in some cases instead of incorporating the (resistance causing) D-lactate in the pentapeptide termini of the cell wall precursor. The presence of this D-alanine supplement thus makes the assay less stringent.
Inoculate E. faecalis VanA strain in BHI broth (pick a few colonies into 3 ml BHI with 2.56 ug/ml vancomycin and grow O/N at 35° C. in a shaker rotating at 225 rpm.
Dilute the O/N culture 1:50 in BHI with 2.56 ug/ml vancomycin (0.5 ml±24.5 ml BHI) in a 125-ml flask, put back in the 35° C. shaker until the cells grow to early log phase (OD600 about 0.2, takes approximately 2 hrs). Make a 1:800 dilution of the log phase culture with BHI broth. 50 ul of these diluted cells will be used as the inoculum in the assay as described below. Add the inoculum after the other reagents.
Meanwhile, test the inoculum concentration and purity: Make 3 serial 10-fold dilutions of the inoculum in 0.2 ml BHI broth. Plate 100 ul on TSA agar plates (trypticase soy agar), incubate at 35° C. O/N, count the colonies to estimate the CFU/ml in the inoculum (it should be 10^4 -10^5 CFU/ml).
Make vancomycin stock at 50 mg/ml in ddH2 O. Filter sterilize with 0.2 um filter, and keep in the freezer. On the day of the assay, dilute vancomycin to 50 ug/ml (for VPS-20) or 54 ug/ml (for VPS-D-ala) in BHI broth.
Prepare D-alanine (Sigma) at 800 mM in ddH2O. Filter sterilize with 0.2 um filter.
The test compounds are from 0.1 mg/ml plates in 10% DMSO, 90% 50 mM HEPES, pH 7.3. Thaw at room temperature.
1. Take 40 ul 50 ug/ml vancomycin in BHI to each well of the assay plate (Final volume will be 100 ul, making vancomycin concentration 20 ug/ml)
2. For each assay plate, prepare a toxicity control plate; instead of pipetting 40 ul of the vancomycin, use 40 ul of BHI broth in each well of the assay plate.
3. Dilute 800 mM D-alanine to 200 mM in BHI broth, take 25 ul of the 200 mM D-alanine to both the assay plate and the toxic control plate.
4. Take 15 ul of 54 ug/ml vancomycin in BHI to each well of the assay plate (Final volume will be 100 ul, making vancomycin concentration 8 ug/ml)
5. For each assay plate, prepare a toxicity control plate; instead of pipetting 15 ul of the vancomycin, use 15 ul of BHI broth in each well of the assay plate.
6. Take 10 ul/well of the test compounds to the assay plates and the toxicity control plates. Do this in perfect register in the microtiter plates (change tips), and work using sterile technique (Final concentration will be 10 ug/ml test compounds, 1% DMSO). This must be done with separate tips, in perfect register.
7. Add 10 ul of 10% DMSO, 90% 50 mM HEPES, pH 7.3 in columns 1 and 12 in each plates.
8. Inoculate all wells in columns 2 to 11 with 50 ul 1/800 diluted log phase culture (prepared as indicated above). Use 50 ul sterile BHI instead of inoculum for the negative growth controls in well A-D in columns 1 and well E-H in columns 12. Add 50 ul of inoculum to Wells E-H in columns 1 and wells A-D in columns 12 for the positive growth controls.
11. […] Remove mylar lids and check the cell density (A600) in 21-24 hours using a microtiter plate reader. The plates will need to be agitated carefully to resuspend the cells before reading.

Compound | effect on the MIC for methicillin (MRSA [1]) | intrinsic antimicrobial activity (MRSA [2]) | also measured
C=C1CC[C@@H]2[C@](C)(CO)[C@H](O)CC[C@@]2(C)[C@@H]1C/C=C1/C(=O)OC[C@H]1O [andrographolide] | little or no effect on the MIC for methicillin |  | 
C[C@]12CC[C@H](O)C[C@@H]1CC[C@@H]1[C@@H]2CC[C@]2(C)C(=O)CC[C@@H]12 [epiandrosterone] | little or no effect on the MIC for methicillin |  | 
COc1ccc2c(c1)CCCC2 [6-methoxy-1,2,3,4-tetrahydronaphthalene] | little or no effect on the MIC for methicillin |  | 
C[C@@]12CCC[C@H]1[C@@H]1CC[C@@H]3C[C@H](O)CC[C@]3(C)[C@H]1CC2 [5β-androstan-3-α-ol] | reduce the MIC for methicillin | not exhibiting intrinsic antimicrobial activity | 
COc1cc2c(cc1OC)C(=O)CCC2 [6,7-dimethoxy-1-tetralone] | little or no effect on the MIC for methicillin |  | 
C[C@H]1[C@H](C)CC[C@]2(CO)CC[C@]3(C)C(=CC[C@@H]4[C@@]5(C)CC[C@H](O)C(C)(C)[C@@H]5CC[C@]43C)[C@H]12 [uvaol] | reduce the MIC for methicillin | not exhibiting intrinsic antimicrobial activity | 
C[C@@]12CCC[C@H]1[C@@H]1CC[C@H]3C[C@@H](O)CC[C@]3(C)[C@H]1CC2 [5-α-androstan-3β-ol] | reduce the MIC for methicillin | not exhibiting intrinsic antimicrobial activity | 
C[C@@]12CCC[C@H]1[C@@H]1CC[C@@H]3C[C@@H](O)CC[C@]3(C)[C@H]1CC2 [5β-androstan-3β-ol] | reduce the MIC for methicillin | not exhibiting intrinsic antimicrobial activity | 
COc1ccc2c(c1)CC[C@@H]1[C@@H]2CC[C@]2(C)[C@@H](O)CC[C@@H]12 [β-estradiol-3-methyl ether] | reduce the MIC for methicillin | not exhibiting intrinsic antimicrobial activity | 
CCc1cc2c(cc1C(=O)CCN1CCCC1)C(C)(C)CCC2(C)C [EOPPTTN, 6-ethyl-7-[1-oxo-3-(1-pyrrolidino)]propyl-1,2,3,4-tetrahydro-1,1,4,4-tetramethylnaphthalene] |  |  | vancomycin MIC reduction in checkerboard assay ([3]; compound 0-20 μg/ml, VanA): the vancomycin MIC declined significantly; synergy with vancomycin ([3]; dose range study, VanA phenotype): synergy; vancomycin MIC reduction in checkerboard assay ([4]; compound 0-20 μg/ml, VanB): the vancomycin MIC declined significantly; synergy with vancomycin ([4]; dose range study, VanB phenotype): synergy; intrinsic activity against the control cells (E. faecalis VanA strain; no vancomycin): some intrinsic activity against the control cells; vancomycin potentiation screen result (E. faecalis VanA strain; VPS-20 and/or VPS-D-ala): positive, but less than N-benzyl thiosalicylamide
4a, 5-epoxy-3-oxo-14H-4,6a,9,9-4mephenanthro (2,3-D)(1,3)dioxole-4-propionic acid | little or no effect on the MIC for methicillin |  | 
C[C@]12CC[C@@H]3c4ccc(O)cc4CC[C@H]3[C@@H]1CC[C@@H]2O [β-estradiol] | little or no effect on the MIC for methicillin |  | 
C[C@]12CC[C@@H]3c4ccc(O)cc4CC[C@H]3[C@@H]1CC[C@H]2O [α-estradiol] | little or no effect on the MIC for methicillin |  | 
COc1ccc2c(c1)CCCC2=O [6-methoxy-1-tetralone] | little or no effect on the MIC for methicillin |  | 
10a, 12a dimethyl 1-8-hydroxy-tetradecahydrochrysene | reduce the MIC for methicillin | not exhibiting intrinsic antimicrobial activity | 
COC(=O)C1(C)CCCC2(C)c3cc(OC)ccc3CCC12 (stereo not drawn) [methyl o-methyl-podocarpate] | little or no effect on the MIC for methicillin |  | 
CC1(C)CCCC2(C)C1CCC1(C)OC(=O)CC12 (single isomer, unassigned) [(3aR) -(+) -sclareolide] | little or no effect on the MIC for methicillin |  | 
C=C1CC[C@H](O)C/C1=C/C=C1\CCC[C@]2(C)[C@@H]([C@H](C)/C=C/[C@H](C)C(C)C)CC[C@@H]12 [ergocalciferol] | little or no effect on the MIC for methicillin |  | 
COc1ccc2c(c1)[C@]13CCCC[C@@H]1[C@H](C2)N(C)CC3 [dextromethorphan] | little or no effect on the MIC for methicillin |  | 
